14 molecules from ChEMBL document CHEMBL6074657, “Discovery and Synthesis of Heterobifunctional Degraders of Rearranged during Transfection (RET) Kinase” (J Med Chem, 2024) can be followed below.

Data set [1] can be described thus: in vitro. The conditions noted are these: human, liver microsomes. For orientation: Liver microsomes are vesicles of endoplasmic reticulum, rich in cytochrome P450 enzymes.
Data set [2] in a line: in vitro. The conditions noted are these: rat, liver microsomes.
Data set [3] in a line: in vitro. Particulars: mouse, liver microsomes.
A short description of data set [4]: in vitro. Particulars: human, liver microsomes. This is another data set of the same source.
Data set [5] can be described thus: in vitro. Particulars: mouse, liver microsomes. The source holds these as a separate data set.
Data set [6] is described as follows: Intrinsic clearance in mouse. It counts as ADME, organism-based. The conditions noted are these: in vivo.
Data set [7] is described as follows: Metabolic stability in rat liver microsomes assessed as half-life. It counts as ADME, Microsome.
Data set [8] in a line: Bioavailability in mouse at 50 mg/kg, sc. It counts as ADME, organism-based. Particulars: in vivo.
Data set [9] is described as follows: Tmax in athymic nude mouse at 8 to 75 mg/kg, sc by LC/MS analysis. It counts as ADME, organism-based. Particulars: in vivo, dose 8-75 mg/kg.
The nature of data set [10]: Cmax in athymic nude mouse at 8 mg/kg, sc measured after 24 hrs by LC/MS analysis. The format is ADME, organism-based. The conditions noted are these: in vivo.
Data set [11] in a line: Cmax in athymic nude mouse at 25 mg/kg, sc measured after 24 hrs by LC/MS analysis. The format is ADME, organism-based. Particulars: in vivo.
The nature of data set [12]: Cmax in athymic nude mouse at 75 mg/kg, sc measured after 24 hrs by LC/MS analysis. It counts as ADME, organism-based. The conditions noted are these: in vivo.

Each structure is given as a SMILES string.

A word on the share remaining: it is the share of the starting amount still present when the sample was taken. Low readings indicate more turnover, high ones less turnover. By half-life is commonly meant the time in which the quantity being followed falls by half. Turning to `CCOc1cc(-c2ccc(N3CCC(CN4CCN(C(=O)CCN5CCC(c6ccc7c(c6)CN(C6CCC(=O)NC6=O)C7=O)CC5)CC4)(NC(=O)c4cc(F)ccc4F)CC3)nc2)c2c(C#N)cnn2c1` (stereo not given), the amount remaining at 10 min amounted to 85% in data set [1], 94% in data set [2] and 82% in data set [3]. Also, the half-life was 1.02 h in data set [4] and 0.95 h in data set [5].

For the molecule `CCOc1cc(-c2ccc(N3CCC(CN4CCN(C(=O)CCN5CCC(c6ccc7c(N8CCC(=O)NC8=O)nn(C)c7c6)CC5)CC4)(NC(=O)c4cc(F)ccc4F)CC3)nc2)c2c(C#N)cnn2c1`, the share remaining at 10 min was determined as 81% in data set [1], 75% in [2] and 88% in [3]. Besides, the half-life stood at 0.7 h in [4] and 1.73 h in data set [5].

As for `CCOc1cc(-c2ccc(N3CCC(CN4CCC(C(=O)N5CC(N6CCC(c7ccc8c(c7)C(=O)N(C7CCC(=O)NC7=O)C8)CC6)C5)CC4)(NC(=O)c4cc(F)ccc4F)CC3)nc2)c2c(C#N)cnn2c1` (stereo not given), the half-life in data set [4] was over 2 h; in data set [5], 1.57 h.

As a reminder, the CLint scaled is a measure of how fast metabolising enzymes remove a compound, apart from limits set by blood flow. High values mean faster metabolism, low ones greater metabolic stability. In [6], `CCOc1cc(-c2ccc(N3CCC(CN4CCN(C(=O)CCCCCCN5CCN(c6ccc7c(c6)CN(C6CCC(=O)NC6=O)C7=O)CC5)CC4)(NC(=O)c4cc(F)ccc4F)CC3)nc2)c2c(C#N)cnn2c1` (stereo not given) came in with a CLint scaled of 32 mL/min/kg. The amount remaining at 10 min in [1] is 40%; in data set [2], 84%; in data set [3], 70%. Besides, the half-life turned out to be 0.133 h in data set [4] and 0.467 h in data set [5].

Consider `CCOc1cc(-c2ccc(N3CCC(CN4CCN(C(=O)CCCCN5CCC(c6ccc7c(c6)CN(C6CCC(=O)NC6=O)C7=O)CC5)CC4)(NC(=O)c4cc(F)ccc4F)CC3)nc2)c2c(C#N)cnn2c1` (stereo not given), for which the fraction remaining at 10 min in [1] was 88%; in data set [2], 100%; in data set [3], 85%. Also, the half-life in data set [4] was 1.4 h; in data set [5], 1.42 h.

As to `COc1ccc(CN2[C@@H]3C[C@H]2CN(c2ccc(-c4cc(OCC(C)(C)O)cn5ncc(C#N)c45)cn2)C3)cn1`, the share remaining at 10 min in [1] amounted to 58%; in data set [2] it was 89%; in data set [3] it was 63%.

In general, bioavailability refers to dose-corrected exposure relative to a reference, in per cent. High values mean good availability, low ones poor availability. What is called Tmax is the time from dosing to the highest level. By Cmax is commonly meant the peak of the concentration-time curve. As for `CCOc1cc(-c2ccc(N3CCC(CN4CCN(C(=O)C5CC(N6CCC(c7ccc8c(c7)C(=O)N(C7CCC(=O)NC7=O)C8)CC6)C5)CC4)(NC(=O)c4cc(F)ccc4F)CC3)nc2)c2c(C#N)cnn2c1` (stereo not given), the half-life is over 2 h in data set [7], 1.48 h in [4] and over 2 h in data set [5]. The molecule further came in with a bioavailability in data set [8] of 30%. Also, the Tmax in data set [9] was found to be 1 h. The Cmax stood at 0.708 µM in data set [10], 4.3 µM in data set [11] and 8.09 µM in data set [12].

Regarding `CCOc1cc(-c2ccc(N3CCC(CN4CCN(C(=O)CCCCCCN5CCC(c6ccc7c(c6)CN(C6CCC(=O)NC6=O)C7=O)CC5)CC4)(NC(=O)c4cc(F)ccc4F)CC3)nc2)c2c(C#N)cnn2c1` (stereo not given), the share remaining at 10 min in data set [1] turned out to be 78%; in data set [2], 88%; in data set [3] it was 80%. For the same molecule, the half-life in data set [4] was 0.583 h; in data set [5], 1.55 h.

As for `CCOc1cc(-c2ccc(N3CCC(CN4CCN(C(=O)CCN5CCC(c6ccc7c(c6)C(=O)N([C@H]6CCC(=O)NC6=O)C7)CC5)CC4)(NC(=O)c4cc(F)ccc4F)CC3)nc2)c2c(C#N)cnn2c1`, the fraction remaining at 10 min is 100% in data set [1], 100% in [2] and 80% in data set [3]. In addition, the half-life in data set [4] and in data set [5] was over 2 h each time.

With `CCOc1cc(-c2ccc(N3CCC(CN4CCN(C(=O)C5CC6(C5)CC(N5CCN(c7ccc8c(c7)CN(C7CCC(=O)NC7=O)C8=O)CC5)C6)CC4)(NC(=O)c4cc(F)ccc4F)CC3)nc2)c2c(C#N)cnn2c1` (stereo not given), the results for the fraction remaining at 10 min in data set [1], in [2] and in [3] were 84%, 100% and 81%, respectively. The results for the half-life in data set [4] and in data set [5] were over 2 h and 1.53 h, respectively.

For `CCOc1cc(-c2ccc(N3CCC(COCC(=O)N4CCC(CN5CCN(c6ccc7c(c6)CN(C6CCC(=O)NC6=O)C7=O)CC5)CC4)(NC(=O)c4cc(F)ccc4F)CC3)nc2)c2c(C#N)cnn2c1` (stereo not given), the amount remaining at 10 min in data set [1] worked out at 10%; in data set [2] it was 81%; in data set [3] it was 68%.

Regarding `CCOc1cc(-c2ccc(N3CCC(CN4CCN(C(=O)CCN5CCC(c6ccc7c(c6)C(=O)N([C@@H]6CCC(=O)NC6=O)C7)CC5)CC4)(NC(=O)c4cc(F)ccc4F)CC3)nc2)c2c(C#N)cnn2c1`, the share remaining at 10 min is 98% in data set [1], 100% in data set [2] and 100% in data set [3]. Moreover, the half-life was 1.28 h in data set [4] and over 2 h in [5].

On to `CCOc1cc(-c2ccc(N3CCC(CN4CCN(C(=O)CCN5CCC(c6ccc7c(c6)C(=O)N(C6CCC(=O)NC6=O)C7)CC5)CC4)(NC(=O)c4cc(F)ccc4F)CC3)nc2)c2c(C#N)cnn2c1` (stereo not given), for which the amount remaining at 10 min in [1] is 82%; in data set [2] it was 89%; in data set [3], 85%. The half-life in data set [4] worked out at 0.867 h; in data set [5] it was 0.933 h.

Turning to `CCOc1cc(-c2ccc(N3CCC(CN4CCN(C(=O)CCN5CCC(c6ccc7c(c6)C(=O)N(C6CCC(=O)NC6=O)C7)CC5)CC4)(NC(=O)c4ncccc4F)CC3)nc2)c2c(C#N)cnn2c1` (stereo not given), the amount remaining at 10 min is 79% in [1], 97% in [2] and 100% in [3].
